Test results: ChEMBL document CHEMBL3044888, “Fungicidal activity of indole derivatives against some plant pathogenic fungi” (J Pestic Sci, 2010)
≈ marks a conversion by molar mass, not a printed value.

How the values were obtained:
[1] = tested on: Macrophomina phaseolina; test: In vivo effect on peroxidase activity in Macrophomina phaseoli assessed as DNA content at 0.5 times of IC50 concentration (reference value: 15.5 +/- 0.5 mg/l); format: functional
[2] = tested on: Macrophomina phaseolina; test: In vivo effect on peroxidase activity in Macrophomina phaseoli assessed as DNA content at 0.1 times of IC50 concentration (reference value: 15.5 +/- 0.5 mg/l); format: functional
[3] = tested on: Rhizoctonia solani; test: In vivo effect on peroxidase activity in Rhizoctonia solani assessed as total soluble sugar content per gram of dry hyphal at 1 times of IC50 concentration (reference value: 20.1 +/- 0.8 mg/g of dry weight); format: functional
[4] = tested on: Rhizoctonia solani; test: In vivo effect on peroxidase activity in Rhizoctonia solani assessed as total soluble sugar content per gram of dry hyphal at 0.5 times of IC50 concentration (reference value: 20.1 +/- 0.8 mg/g of dry weight); format: functional
[5] = tested on: Rhizoctonia solani; test: In vivo effect on peroxidase activity in Rhizoctonia solani assessed as total soluble sugar content per gram of dry hyphal at 0.25 times of IC50 concentration (reference value: 20.1 +/- 0.8 mg/g of dry weight); format: functional
[6] = tested on: Rhizoctonia solani; test: In vivo effect on peroxidase activity in Rhizoctonia solani assessed as total soluble sugar content per gram of dry hyphal at 0.1 times of IC50 concentration (reference value: 20.1 +/- 0.8 mg/g of dry weight); format: functional
[7] = tested on: Macrophomina phaseolina; test: In vivo effect on peroxidase activity in Macrophomina phaseoli assessed as reduced sugar content per gram of dry hyphal at 0.25 times of IC50 concentration (reference value: 7.3 +/- 0.5 mg/g of dry weight); format: functional
[8] = tested on: Macrophomina phaseolina; test: In vivo effect on peroxidase activity in Macrophomina phaseoli assessed as reduced sugar content per gram of dry hyphal at 0.1 times of IC50 concentration (reference value: 7.3 +/- 0.5 mg/g of dry weight); format: functional
[9] = tested on: Rhizoctonia solani; test: In vivo effect on peroxidase activity in Rhizoctonia solani assessed as DNA content at 1 times of IC50 concentration (reference value: 24 +/- 0.7 mg/l); format: functional
[10] = tested on: Rhizoctonia solani; test: In vivo effect on peroxidase activity in Rhizoctonia solani assessed as RNA content at 2 times of IC50 concentration (reference value: 25 +/- 0.7 mg/l); format: functional
[11] = tested on: Rhizoctonia solani; test: In vivo effect on peroxidase activity in Rhizoctonia solani assessed as RNA content at 1 times of IC50 concentration (reference value: 25 +/- 0.7 mg/l); format: functional
[12] = tested on: Rhizoctonia solani; test: In vivo effect on peroxidase activity in Rhizoctonia solani assessed as RNA content at 0.1 times of IC50 concentration (reference value: 25 +/- 0.7 mg/l); format: functional
[13] = tested on: Globisporangium debaryanum; test: In vivo effect on peroxidase activity in Pythium debaryanum assessed as DNA content at 1 times of IC50 concentration (reference value: 31 +/- 0.8 mg/l); format: functional
[14] = tested on: Globisporangium debaryanum; test: In vivo effect on peroxidase activity in Pythium debaryanum assessed as DNA content at 0.5 times of IC50 concentration (reference value: 31 +/- 0.8 mg/l); format: functional
[15] = tested on: Globisporangium debaryanum; test: In vivo effect on peroxidase activity in Pythium debaryanum assessed as DNA content at 0.25 times of IC50 concentration (reference value: 31 +/- 0.8 mg/l); format: functional
[16] = tested on: Globisporangium debaryanum; test: In vivo effect on peroxidase activity in Pythium debaryanum assessed as DNA content at 0.1 times of IC50 concentration (reference value: 31 +/- 0.8 mg/l); format: functional
[17] = tested on: Globisporangium debaryanum; test: In vivo effect on peroxidase activity in Pythium debaryanum assessed as RNA content at 2 times of IC50 concentration (reference value: 32.2 +/- 0.7 mg/l); format: functional
[18] = tested on: Globisporangium debaryanum; test: In vivo effect on peroxidase activity in Pythium debaryanum assessed as RNA content at 1 times of IC50 concentration (reference value: 32.2 +/- 0.7 mg/l); format: functional
[19] = tested on: Globisporangium debaryanum; test: In vivo effect on peroxidase activity in Pythium debaryanum assessed as RNA content at 0.5 times of IC50 concentration (reference value: 32.2 +/- 0.7 mg/l); format: functional
[20] = tested on: Rhizoctonia solani; test: In vivo effect on peroxidase activity in Rhizoctonia solani assessed as non-reducing sugar content per gram of dry hyphal at 0.1 times of IC50 concentration (reference value: 2.8 +/- 0.2 mg/g of dry weight); format: functional
[21] = tested on: Rhizoctonia solani; test: In vivo effect on peroxidase activity in Rhizoctonia solani assessed as reduced sugar content per gram of dry hyphal at 1 times of IC50 concentration (reference value: 17.3 +/- 1 mg/g of dry weight); format: functional
[22] = tested on: Rhizoctonia solani; test: In vivo effect on peroxidase activity in Rhizoctonia solani assessed as reduced sugar content per gram of dry hyphal at 0.25 times of IC50 concentration (reference value: 17.3 +/- 1 mg/g of dry weight); format: functional
[23] = tested on: Macrophomina phaseolina; test: In vivo effect on peroxidase activity in Macrophomina phaseoli assessed as total soluble sugar content per gram of dry hyphal at 1 times of IC50 concentration (reference value: 19.3 +/- 0.7 mg/g of dry weight); format: functional
[24] = tested on: Macrophomina phaseolina; test: In vivo effect on peroxidase activity in Macrophomina phaseoli assessed as non-reducing sugar content per gram of dry hyphal at 1 times of IC50 concentration (reference value: 12 +/- 0.8 mg/g of dry weight); format: functional
[25] = tested on: Macrophomina phaseolina; test: In vivo effect on peroxidase activity in Macrophomina phaseoli assessed as RNA content at 0.1 times of IC50 concentration (reference value: 16.1 +/- 0.4 mg/l); format: functional
[26] = tested on: Fusarium culmorum; test: In vivo effect on peroxidase activity in Fusarium culmorum assessed as DNA content at 1 times of IC50 concentration (reference value: 49.5 +/- 1.6 mg/l); format: functional
[27] = tested on: Fusarium culmorum; test: In vivo effect on peroxidase activity in Fusarium culmorum assessed as DNA content at 0.5 times of IC50 concentration (reference value: 49.5 +/- 1.6 mg/l); format: functional
[28] = tested on: Fusarium culmorum; test: In vivo effect on peroxidase activity in Fusarium culmorum assessed as DNA content at 0.25 times of IC50 concentration (reference value: 49.5 +/- 1.6 mg/l); format: functional
[29] = tested on: Fusarium culmorum; test: In vivo effect on peroxidase activity in Fusarium culmorum assessed as RNA content at 0.5 times of IC50 concentration (reference value: 51.5 +/- 1.5 mg/l); format: functional
[30] = tested on: Fusarium culmorum; test: In vivo effect on peroxidase activity in Fusarium culmorum assessed as RNA content at 0.1 times of IC50 concentration (reference value: 51.5 +/- 1.5 mg/l); format: functional
[31] = Activation of peroxidase activity in Rhizoctonia solani
[32] = tested on: Globisporangium debaryanum; test: Inhibition of peroxidase activity in Pythium debaryanum at 0.5 times of IC50 concentration
[33] = tested on: Globisporangium debaryanum; test: Inhibition of peroxidase activity in Pythium debaryanum at 0.25 times of IC50 concentration
[34] = Inhibition of polyphenoloxidase activity in Macrophomina phaseoli; parameters: species or system Macrophomina phaseolina
[35] = tested on: Fusarium culmorum; test: Fungicidal activity against Fusarium culmorum assessed as inhibition of hyphal growth by radial growth test; format: functional, organism-based
[36] = tested on: Globisporangium debaryanum; test: Fungicidal activity against Pythium debaryanum assessed as inhibition of hyphal growth by radial growth test; format: functional, organism-based
[37] = tested on: Macrophomina phaseolina; test: Fungicidal activity against Macrophomina phaseoli assessed as inhibition of hyphal growth by radial growth test; format: functional, organism-based

Row | SMILES | Activity [1] | Activity [2] | Activity [3] | Activity [4] | Activity [5] | Activity [6] | Activity [7] | Activity [8] | Activity [9] | Activity [10] | Activity [11] | Activity [12] | Activity [13] | Activity [14] | Activity [15] | Activity [16] | Activity [17] | Activity [18] | Activity [19] | Activity [20] | also measured
1 | c1ccc(-c2cc3ccccc3[nH]2)cc1 [2-PHENYL-1H-INDOLE] | 8 mg/L | 6.4 mg/L | 9.8 mg | 19.1 mg | 71.8 mg | 58.4 mg | 4.6 mg | 6.3 mg | 30.9 mg/L | 28 mg/L | 32.2 mg/L | 29.4 mg/L | 29.4 mg/L | 10.9 mg/L | 19.1 mg/L | 30.9 mg/L | 24.2 mg/L | 30.6 mg/L | 11.4 mg/L | 14.1 mg | Activity [21]: 7.7 mg; Activity [22]: 60.3 mg; Activity [23]: 7.1 mg; Activity [24]: 1.3 mg; Activity [25]: 6.7 mg/L; Activity [26]: 25.3 mg/L; Activity [27]: 18 mg/L; Activity [28]: 23.7 mg/L; Activity [29]: 18.7 mg/L; Activity [30]: 29.7 mg/L; AC50 [31]: 14.5 µg/mL (≈ 75 µM); inhibition [32]: 0%; inhibition [33]: 3.7%; IC50 [34]: 117.1 µg/mL (≈ 606 µM); IC50 [35]: 67.4 µg/mL (≈ 349 µM); IC50 [36]: 17.7 µg/mL (≈ 91.6 µM); IC50 [37]: 96 µg/mL (≈ 497 µM)
2 | CC(=O)n1c(-c2ccccc2)cc2ccccc21 | 8.3 mg/L | 11.7 mg/L | 2.8 mg | 6 mg | 10.8 mg | 12.2 mg | 14.8 mg | 2.5 mg | 31.4 mg/L | 36.1 mg/L | 32.6 mg/L | 23.6 mg/L | 17.5 mg/L | 11.3 mg/L | 25.8 mg/L | 26 mg/L | 22.5 mg/L | 18.2 mg/L | 11.8 mg/L | 2.5 mg | Activity [21]: 2.6 mg; Activity [22]: 9.6 mg; Activity [23]: 34.7 mg; Activity [24]: 8.9 mg; Activity [25]: 12.9 mg/L; Activity [26]: 27.2 mg/L; Activity [27]: 28 mg/L; Activity [28]: 29.9 mg/L; Activity [29]: 29.2 mg/L; Activity [30]: 45.4 mg/L; AC50 [31]: < 11.7 µg/mL; inhibition [32]: 1.3%; inhibition [33]: 3%; IC50 [34]: 80.2 µg/mL (≈ 341 µM); IC50 [35]: 86.7 µg/mL (≈ 368 µM); IC50 [36]: 15 µg/mL (≈ 63.8 µM); IC50 [37]: 93 µg/mL (≈ 395 µM)
